Results as given in patent US20210346392A1, “PHARMACEUTICAL COMPOSITION FOR ORAL ADMINISTRATION” (ASTELLAS PHARMA INC., priority 2018, published 2021).
≈ marks a conversion by molar mass, not a printed value. Like-named read-outs stand apart in the source and are kept apart here.

Tests used:
[1] = Solubility of compound A in Japanese Pharmacopoeia dissolution test fluids; assay type: physicochemical; conditions: for solubility: Seventeenth Edition
Text: When compound A was formulated, the solubility of compound A was confirmed based on a Dissolution Test of the Japanese Pharmacopoeia, Seventeenth Edition, and there was a large difference between an acidic pH range and a neutral pH range.

[2] = Storage stability: total amount of related substances by HPLC (Experimental Example 1); assay type: physicochemical; conditions: stored at 40° C., 75% RH for 1 month, glass bottle, covered
Text: The storage stability as used herein can be evaluated by measuring the change in the amount of related substances derived from compound A when the pharmaceutical composition for oral administration is stored under certain storage conditions. For example, after the pharmaceutical composition for oral administration is stored under certain conditions, the total amount of related substances of compound A contained in the pharmaceutical composition for oral administration, or a specific related substance of compound A is measured. […] The percentage (%) of the total peak area of related substances with respect to the sum of all peak areas including the peak area of compound A are calculated, and is compared with the value before storage to calculate the amount of change (the amount of increase)(%). Alternatively, as shown in Experimental Example 3 described below, the percentage (%) of the peak area of related substance A with respect to the sum of all peak areas obtained in the same manner is calculated, and it is also possible to evaluate the storage stability by the change over time of related substance A.
The physical mixtures obtained in Example 1 and Comparative Example 1 were placed in glass bottles, covered, and stored at 40° C., 75% RH for 1 month, and the total amount of related substances before and after storage was measured by the method described below. […]

difference of solubility between acidic and neutral pH range ([1]; first fluid vs second fluid): approximately 30 times
solubility ([1]; pH 1.2, simulated gastric fluid, first fluid for a Dissolution Test of the Japanese Pharmacopoeia, read-out: solubility in an acidic pH range): ~41 µg/mL (≈ 101 µM)
solubility ([1]; pH 6.8, aqueous buffer, second fluid for a Dissolution Test of the Japanese Pharmacopoeia, read-out: solubility at a neutral pH range): ~1.2 µg/mL (≈ 2.94 µM)
Increased amount of total related substances (%) (n = 2) [2]: 0.00%
Increased amount of total related substances (%) (n = 2) ([2]; listed as compound A): did not increase
SMILES: Cc1nc(CN2CCS(=O)(=O)CC2)c2cc(C3CCC(C)(C)CC3)sc2n1 [Compound A, 6-(4,4-Dimethylcyclohexyl)-4-[(1,1-dioxo-1λ^6-thiomorpholin-4-yl)methyl]-2-methylthieno[2,3-d]pyrimidine]
